Results published in patent publication US6852485B1, “Method for identifying a compound for the treatment of microorganism infections by inhibiting energy storage and utilization in pathogens” (California State University Fullerton Foundation, priority 2002, dated 2005).

Target: T1, Rhodobacter sphaeroides (Rb.s.) ADPG Ppase (Cereibacter sphaeroides, UniProt Q9RNH7)
T1 construct: made in house
Assay: ADPGlc synthesis assay (14-C Glc-1-P converted to ADPGlucose) with purified recombinant Rb.s. ADPG Ppase, with and without activator F6P
Type: biochemical
Details: for inhibition of Rb.s. ADPG Ppase: 500 μM analog, 0.25 mM ATP, 0.5 mM Glc-1-P, pH 7
Excerpt: One particular in vitro method for assessing the activity of an inhibitor to purified ADPGlc PPase is the following: • Assaying for ADPGlc synthesis activity involves measuring the amount of 14-C labeled Glc-1-P converted to ADPGlucose (Preiss, J., Shen, L., Greenberg, E., and Gentner, N. (1966) Biochemistry 5, 1833-1845). Briefly, unreacted Glc-1-P is separated from product by the following steps: 1)digestion with alkaline phosphatase (thus removing the negatively charged phosphate); 2) spotting an aliquot of the reaction mixture on to positively charged DE-81 filters (Whatman); and 3) washing the filters with water (thus removing the now neutral C-14 glucose).
To assess the effect of a putative inhibitor, enzyme assays are performed at a subsaturating concentration of substrate (depending on the enzyme, ATP=0.2-1 mM, Glc-1-P=0.5 mM) under standard conditions in the absence and presence of the major activator for each enzyme (1-5 mM depending on enzyme). In this way, the effect of the inhibitors can be evaluated under the range of the expected in vivo conditions. Initial screening of a putative inhibitor typically includes testing at two concentrations (˜25 μM and 1 mM)±major activator with appropriate controls and blanks for a total of 9 assays/inhibitor/enzyme (2 control assays—appropriate enzyme concentrations in the absence of inhibitor; 4 experimental assays; 1 blank in the absence of inhibitors; 2 blanks in the presence of inhibitor (no activator required).
The APDGIc Ppase from Rhodobacter sphaeroides has been used as a model enzyme for initial testing of inhibitors as it has been cloned, sequenced, and expressed in the inventor's laboratory (Meyer et al (1999) Arch. Biochem. Biophys. 372, 179-188; Igarashi, R. Y. and Meyer, C. R. (2000) Arch. Biochem. Biophys. 376, 47-58) and the purified recombinant enzyme is readily available. Further, this particular enzyme has the most complex regulation (having partial overlap with nearly every type of ADPG Ppase) and has sufficient homology (ranging from ˜40-70% similarity) to the enzyme primary sequence from the mentioned pathogenic bacteria.
PREMIX: A: 100 mM HEPES (pH 7), 0.5 mg/mL BSA, 0.5 mM Glc-1-P, 0.25 mM ATP subsaturating (near S0.5 value), 5 mM MgCl2, (0.2 U Pyrophosphatase))
PREMIX B: A+1 mM F6P (170 μL premix will allow 20 μL for analog vol., 10 μL of E)
II. ANALOG CONC.=5, 50, 500 μM (STOCK CONC.=5 mM) in 50 mM HEPES, pH 7, note that 20 μL of 5 mM in 200 μL assay will yield 500 μM final concentration to obtain 5 mM aliquots: • ANALOG I: add 625 μL of HEPES buffer, mix thoroughly • ANALOG II: add 500 μL of HEPES buffer, mix thoroughly
1:10 DILUTION ALIQUOTS OF 5 mM STOCKS are prepared in order to generate stock solutions that will give 50 and 5 μM with the addition of 20 μL. 100 μL aliquots are stored at −20 C
RBS ADPG PPASE WT ENZYME CONC.=17 mg/mL (use 1:8000 dilution in Dilution Buffer)
THE FOLLOWING ASSAY SET OF 11 ARE UTILIZED FOR EACH ANALOG • 1-BLANK (Premix A) • 2-BLANK+50 μM ANALOG (A) • 3-BLANK+500 μM ANALOG (A) • 4-E CON (A) • 5-E CON+F6P (B) • 6-E+5 μM (A) • 7-E+5 μM((B) • 8-E+50 μM(A) • 9-E+50 μM(B) • 10-E+500 μM (A) • 11-E+500 μM (B)
Purified Rb.s ADPG Ppase was assayed under standard conditions (0.25 mM ATP [˜S0.5 value], 0.5 mM Glc-1-P, 5 mM Mg, 100 mM HEPES, pH7) in the presence and absence of the activator F6P (1 mM) at 3 concentrations of the analogs: 5, 50, and 500 μM. Analog stock solutions were made in 50 mM HEPES, pH 7). These concentrations should be regarded as estimates as there could have been some breakdown of the compounds during 2 years of storage at −20° C. The analogs had no effect on the background cpm of the assays.

[1] = E + 5 uM analog, Premix A (no F6P)
[2] = E + 5 uM analog, Premix B (+1 mM F6P)
[3] = E + 50 uM analog, Premix A (no F6P)
[4] = E + 50 uM analog, Premix B (+1 mM F6P)
[5] = E + 500 uM analog, Premix A (no F6P)
[6] = E + 500 uM analog, Premix B (+1 mM F6P)

T1 sequence (Q9RNH7 whole entry): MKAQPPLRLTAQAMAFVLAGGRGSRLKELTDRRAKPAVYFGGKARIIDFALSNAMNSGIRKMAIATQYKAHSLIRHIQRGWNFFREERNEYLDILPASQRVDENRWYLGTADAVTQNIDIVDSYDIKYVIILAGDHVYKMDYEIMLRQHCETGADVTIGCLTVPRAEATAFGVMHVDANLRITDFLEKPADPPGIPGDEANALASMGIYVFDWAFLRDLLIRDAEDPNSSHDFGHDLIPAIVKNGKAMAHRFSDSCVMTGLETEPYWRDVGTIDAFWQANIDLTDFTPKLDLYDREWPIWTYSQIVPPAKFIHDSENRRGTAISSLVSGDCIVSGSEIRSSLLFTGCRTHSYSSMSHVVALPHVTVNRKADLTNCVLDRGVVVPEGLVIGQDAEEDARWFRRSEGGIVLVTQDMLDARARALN

SMILES	inhibition of Rb.s. ADPG Ppase (absence of the activator F6P)	inhibition of Rb.s. ADPG Ppase (presence of F6P (1 mM))	Units/mg (enzyme activity) [1] [Units/mg]	Units/mg (enzyme activity) [2] [Units/mg]	Units/mg (enzyme activity) [3] [Units/mg]	Units/mg (enzyme activity) [4] [Units/mg]	Units/mg (enzyme activity) [5] [Units/mg]	Units/mg (enzyme activity) [6] [Units/mg]
BP(=O)(OC[C@H]1O[C@@H](n2cnc3c(N)ncnc32)[C@H](O)[C@@H]1O)OP(=O)(O)O[C@H]1O[C@H](CO)[C@@H](O)[C@H](O)[C@H]1O (single isomer, unassigned) [Analog I, adenosine-α-P-boranodiphosphoglucose]	about 75%	~50%	4.02	91.75	3.55	87.40	1.33	53.37
BP(=O)(OC[C@H]1O[C@@H](n2cnc3c(N)ncnc32)[C@H](O)[C@@H]1O)OP(=O)(O)O[C@H]1O[C@H](CO)[C@@H](O)[C@H](O)[C@H]1O (single isomer, unassigned) [Analog II, adenosine-α-P-boranodiphosphoglucose]	about 70%	about 70%	5.28	93.86	4.38	76.73	1.77	33.51
